Measurements taken from patent US5635379A, “D-2-alkyl-tryptophan and peptides containing same” (Deghenghi; Romano, priority 1990, dated 1997).
Square brackets hold non-standard residues; d marks the D form. Peptide text beside a SMILES is read from it. dTrp(2-Me) = Cc1[nH]c2ccccc2c1C[C@@H](N)C(=O)O

Legend:
GH release [1] = assay: GH release in pentobarbital-anesthetized rats, s.c.; format: in vivo, Sprague Dawley rats
Experimental: Male Sprague Dawley rats weighing 225-250 g were divided in groups of five animals each. Rats were anesthetized with Nembutal injected intraperiteonally at 50 mg/kg, fifteen minutes prior to the first blood withdrawal taken over heparin by cardiac puncture (for determination of basal GH).
Subcutaneous injections of either HEXARELIN or GHRP-6 were given immediately after the first blood collection, and additional blood samples were collected 15 and 40 minutes later.
Measurement of rat GH was performed by a standard double antibody radioimmunoassay with reagents supplied by the National Pituitary Agency and the National Institute of Arthritis, Diabetes, and Digestive and Kidney Diseases. The standards used were NIADDK-NIH-rGH-RP-2. Statistical data were obtained with the Student's t Test at a significance level of 5%.

[2] = Acute cardiovascular toxicity in the rat, single i.v. dose, mortality; format: in vivo; settings: for Dead rats/Total N° of rats per group: observed up to 4 hours
Experimental: These two peptides were also tested for acute cardiovascular toxicity in the rat.
Dosages were calculated on the basis of the declared peptide content in each product, as specified below:
A single dose of HEXARELIN or GHRP-6 was administered to rats in different calendar dates in such a way that each group/dose should be treated in two subsequent days.
For each compound, appropriate amounts of solutions in 0.9% NaCl for injection were prepared just before treatment at the suitable concentrations. The solutions were sterilized by filtration (Millipore filter, pore size 0.22 μm). Owing to the type of the study (acute study) in which formulates were administered just after preparation, stability checks were not performed. Concentration checks were also not performed. The volume of solution injected was maintained constant at 1 ml/Kg.
The intravenous injections were done as a single dose in one vein of the tail with an appropriately gauged sterile, disposable, plastic syringe. The injection rate was about 0.1 ml/sec.
Periodical observations were made up to 4 hours after treatment. Abnormality and mortality were recorded. Body weight was recorded once during pre-trial and on the administration day to calculate the volumes to be injected.

GH release [3] = assay: GH-releasing activity s.c. in male rats anesthetized with ketamine and xilazine; format: in vivo, Sprague Dawley rats
Experimental: (§1) Male Sprague Dawley rats (Charles River, Calco, Italy) of 2-3 months of age were used. Rats were housed at 22 +2° C., with lighting cycle of 14 h light: 10 h dark (lights on from 06.00 to 20.00 h), at least 10 days before starting the experiments. A standard dry diet and water were available ad libitum.
Between 09.00-10.00 h rats were anesthetized with ketamine (58 mg/kg, Inoketam, VIRBAC, Milano) and xilazine (12 mg/kg, Rompun, Bayer, Milano). Thirty minutes later, a blood sample ([…]) was withdrawn from the exposed jugular vein, peptides were injected intravenously or subcutaneously, and further blood samples were collected 10, 20 and 30 minutes later.
(§2) Medium and plasma GH was measured by radioimmunoassay using materials supplied by the NIADDK Bethesda, Md. Values were expressed in term of NIASSK-rat-GH-RP-2 standard (potency 2 IU/ml), as ng/ml of medium or plasma.
(§3) The minimum detectable value of rat was 1.0 ng/ml; intra-assay variability was 6%. To avoid inter-assay variation, samples from each experiment were assayed simultaneously.

[4] = Hydrophobicity comparison (FIG. 12); format: physicochemical
growth hormone secretion = assay: Growth hormone secretion in young healthy male volunteers; format: in vivo, human; settings: young (20-30 years old) healthy male volunteers, various dosages
Experimental: The effects of HEXARELIN on growth hormone secretion in young (20-30 years old) healthy male volunteers were measured after the administration of various dosages.

[5] = system: pituitary cell monolayers; assay: GH-releasing activity in pituitary cell culture (monolayers); format: cell-based, Sprague Dawley rats; settings: for GH in medium: 2 hours incubation
Experimental: as §1
Pituitary tissue used for cell dissociation included only the anterior lobe. Briefly, pituitary glands were collected in sterile F-10 medium and after cutting into small fragments incubated twice (30 minutes each) at 37° C. in F-10 medium containing 6% fetal calf serum and collagenase (2.5 mg/ml) (Boehringer, Mannheim GmbH, Germany). Fragments were then washed in Dulbecco's PBS, Ca^2+ and Mg^2+ free medium and mechanically dissociated. Single cell suspension was planted onto 24-well (2×10^5 cells/well) culture plates. The cells were incubated in F-10 medium supplemented with 10% horse serum, 4% fetal calf serum and gentamycin (25 μg/ml), in a humidified atmosphere of 5% CO2 and 95% air at 37° C.
After 3 days, the medium was removed and the cells washed twice with serum free F-10, then incubated with 1 ml of F-10 containing 0.1% BSA only, or with added various concentrations of synthetic peptides.
After incubation for 2 h at 37° C., media were collected and stored frozen at -20° C. until assayed for measurement of GH content.
as §2, §3

Growth Hormone release = assay: GH release in 10-day old rats after subcutaneous injection; format: in vivo; settings: s.c. 160 μg/kg
Experimental: The peptides of Examples 4 and 5 were tested as Growth Hormone releasers in rats. GH released in a series of seven 10-day old rats, injected subcutaneously with a standard dose of 160 μg/kg and sacrificed 15 minutes after the injection.

In the case of `Cc1[nH]c2ccccc2c1C[C@@H](NC(=O)[C@@H](N)Cc1cnc[nH]1)C(=O)N[C@@H](C)C(=O)N[C@@H](Cc1c[nH]c2ccccc12)C(=O)N[C@H](Cc1ccccc1)C(=O)N[C@@H](CCCCN)C(N)=O` [Example 4, His-D-2-methyl-Trp-Ala-Trp-D-Phe-Lys-NH2] (H-H[dTrp(2-Me)]AW[dF]K-NH2), the “POST-DRUG PLASMA GH” value (GH release [1]; s.c. 10 μg/kg, 0 min (basal)) is reported as 63 ± 58 ng/mL, the “POST-DRUG PLASMA GH” value (GH release [1]; s.c. 10 μg/kg, 15 min) is reported as 95 ± 44 ng/mL and the “POST-DRUG PLASMA GH” value (GH release [1]; s.c. 10 μg/kg, 40 min) is reported as 88 ± 29 ng/mL. The “POST-DRUG PLASMA GH” value (GH release [1]; s.c. 25 μg/kg, 0 min (basal)) was 56 ± 21 ng/mL, the “POST-DRUG PLASMA GH” value (GH release [1]; s.c. 25 μg/kg, 15 min) was 388 ± 99 ng/mL and the “POST-DRUG PLASMA GH” value (GH release [1]; s.c. 25 μg/kg, 40 min) was 100 ± 51 ng/mL. The “POST-DRUG PLASMA GH” value (GH release [1]; s.c. 50 μg/kg, 0 min (basal)) was 32 ± 16 ng/mL, the “POST-DRUG PLASMA GH” value (GH release [1]; s.c. 50 μg/kg, 15 min) was 439 ± 69 ng/mL and the “POST-DRUG PLASMA GH” value (GH release [1]; s.c. 50 μg/kg, 40 min) was 81 ± 13 ng/mL. The “Dead rats/Total N° of rats per group” value ([2]; single i.v. dose 5.0 mg/kg) was 0/6, the “Dead rats/Total N° of rats per group” value ([2]; single i.v. dose 7.5 mg/kg) was 1/6 and the “Dead rats/Total N° of rats per group” value ([2]; single i.v. dose 10 mg/kg) was 2/6. The “toxicity compared with GHRP-6” value ([2]; single i.v. dose, mortality) was “less toxic than GHRP-6”, the “plasma GH” value (GH release [3]; s.c. 150 μg/kg, 10 min) was 107.1 ± 17.7 ng/mL and the “plasma GH” value (GH release [3]; s.c. 150 μg/kg, 20 min) was 156.6 ± 18.7 ng/mL. For the same compound, the “plasma GH” value (GH release [3]; s.c. 150 μg/kg, 30 min) was 86.0 ± 18.9 ng/mL, the “plasma GH” value (GH release [3]; s.c. 150 μg/kg, time 0 min (before injection)) was 12.0 ± 4.0 ng/mL and the “plasma GH” value (GH release [3]; s.c. 300 μg/kg, 10 min) was 80.6 ± 11.0 ng/mL. For the same compound, the “plasma GH” value (GH release [3]; s.c. 300 μg/kg, 20 min) was 171.7 ± 22.0 ng/mL, the “plasma GH” value (GH release [3]; s.c. 300 μg/kg, 30 min) was 102.7 ± 17.0 ng/mL and the “plasma GH” value (GH release [3]; s.c. 300 μg/kg, time 0 min (before injection)) was 12.0 ± 4.0 ng/mL. For the same compound, the “plasma GH” value (GH release [3]; s.c. 600 μg/kg, 10 min) was 90.7 ± 16.6 ng/mL, the “plasma GH” value (GH release [3]; s.c. 600 μg/kg, 20 min) was 187.5 ± 15.4 ng/mL and the “plasma GH” value (GH release [3]; s.c. 600 μg/kg, 30 min) was 115.3 ± 19.1 ng/mL. For the same compound, the “plasma GH” value (GH release [3]; s.c. 600 μg/kg, time 0 min (before injection)) was 23.0 ± 6.0 ng/mL, the “effect on plasma GH, comparison with GHRP-6” value (GH release [3]; s.c. 150, 300 and 600 μg/kg, 10, 20 and 30 minutes) was “more effective than GHRP-6 at all the considered times” and the “hydrophobicity compared with GHRP-6” value [4] was “greater hydrophobicity than GHRP-6”. For the same compound, the “effect on growth hormone secretion” value (growth hormone secretion) was “effective in vivo”, the GH in medium ([5]; 10^-6 M) was 558.0 ± 19.1 ng/well and the GH in medium ([5]; 10^-7 M) was 589.1 ± 17.9 ng/well. The GH in medium ([5]; 10^-8 M) was 557.8 ± 15.9 ng/well, the “GH secretion versus basal” value ([5]; 10^-8 to 10^-6 M, two hours) was “stimulation of GH secretion over basal secretion” and the “activity as Growth Hormone releaser” value (Growth Hormone release) was “very active”. For the same compound, the GH (Growth Hormone release; sacrificed 15 minutes after injection) was 201 ng/mL.
